Test system: D. melanogaster nAChRs
Assay: Comparison of agonist activity between nAChRs expressed in X. laevis oocytes (one-way ANOVA, Kruskal-Wallis);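 on Difference of Imax values: Imax relative to maximal plateau response to ACh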
Assay type: cell-based
Procedure: We minimised the use of X. laevis according to the UK Animals (Scientific Procedures) Act, 1986. […] Oocytes were defolliculated after collagenase treatment in Ca^2+-free standard oocyte saline (Ca^2+-free SOS). cRNAs of the nAChR subunits and co-factors mixed at a concentration of 0.1 mg/mL was injected into oocytes at a volume of 50 nL. Then the oocytes were incubated in the incubation medium (SOS supplemented with sodium pyruvate (Nacalai Tesque, #13058–12), penicillin-streptomycin (MilliporeSigma, #P4333), gentamycin (Nacalai Tesque, #16672–04), and 4% horse serum (Thermo Fisher Scientific, #26050–070) for 3−4 days prior to electrophysiology.
Each defolliculated X. laevis oocyte was secured in a Perspex recording chamber and perfused with the standard oocyte saline (SOS) containing 0.5 μM atropine (SOSA) at a flow rate of 7−10 mL/min [48]. Two glass electrodes filled with 2 M KCl were impaled into each oocyte and the membrane potential was clamped at -100 mV. […] The peak amplitude of the response was measured and analysed by pCLAMP (Molecular Devices, USA).
Y=Imax/1+10^(logEC50‐X)nH
Where Y is the normalised response, X is log[ligand (M)], EC50 is the half maximal concentration (M), Imax is the maximum normalised response and nH is the Hill coefficient.
Prism software was employed for the statistical analyses. […] One-way ANOVA was used to analyse the differences of the ligand agonist activity in terms of pEC50 on the various nAChRs expressed in X. laevis as well as data obtained with D. melanogaster larvae and adults.

[1] = Dα1/Dβ1/Dβ2 vs. Dα1/Dα3/Dβ1/Dβ2
[2] = Dα1/Dβ1/Dβ2 vs. Dα2/Dα3/Dβ1/Dβ2
[3] = Dα1/Dβ1 vs. Dα1/Dα2/Dα3/Dβ1/Dβ2
[4] = Dα2/Dα3/Dβ1/Dβ2 vs. Dα1/Dα2/Dα3/Dβ1/Dβ2
[5] = Dα2/Dα3/Dβ1 vs. Dα1/Dα2/Dα3/Dβ1
[6] = Dα2/Dα3/Dβ1 vs. Dα1/Dα2/Dα3/Dβ1/Dβ2
[7] = Dα2/Dα3/Dβ1 vs. Dα1/Dα2/Dβ1/Dβ2
[8] = Dα2/Dα3/Dβ1 vs. Dα1/Dα3/Dβ1/Dβ2
[9] = Dα2/Dα3/Dβ1 vs. Dα2/Dα3/Dβ1/Dβ2
[10] = Dα3/Dβ1/Dβ2 vs. Dα1/Dα2/Dα3/Dβ1/Dβ2
[11] = Dα3/Dβ1/Dβ2 vs. Dα1/Dα2/Dβ1/Dβ2
[12] = Dα3/Dβ1/Dβ2 vs. Dα1/Dα3/Dβ1/Dβ2
[13] = Dα3/Dβ1/Dβ2 vs. Dα2/Dα3/Dβ1/Dβ2
[14] = Dα3/Dβ1 vs. Dα1/Dα2/Dα3/Dβ1/Dβ2

**Q.** `O=[N+]([O-])NC1=NCCN1Cc1ccc(Cl)nc1` [Imidacloprid, imidacloprid] was tested. Which “Difference of Imax values” [1] did it give?
**A.** Its value is -0.254.

**Q.** And the “Difference of pEC50 values” [1]?
**A.** The value was -0.53.

**Q.** What about the “Difference of Imax values” [2] of the same compound?
**A.** The value was -0.049.

**Q.** And the “Difference of pEC50 values” [2]?
**A.** The value was -0.01.

**Q.** And the “Difference of Imax values” (Dα1/Dβ1/Dβ2 vs. Dα3/Dβ1/Dβ2)?
**A.** Its value is 0.037.

**Q.** And the “Difference of pEC50 values” (Dα1/Dβ1/Dβ2 vs. Dα3/Dβ1/Dβ2)?
**A.** Its value is -1.29.

**Q.** And the “Difference of Imax values” (Dα1/Dβ1 vs. Dα1/Dα2/Dα3/Dβ1)?
**A.** Its value is 0.028.

**Q.** What about the “Difference of pEC50 values” (Dα1/Dβ1 vs. Dα1/Dα2/Dα3/Dβ1) of the same compound?
**A.** Its value is 0.08.

**Q.** What about the “Difference of Imax values” [3] of the same compound?
**A.** The value was -0.020.

**Q.** And the “Difference of pEC50 values” [3]?
**A.** The value was 0.69.

**Q.** And the “Difference of Imax values” (Dα1/Dβ1 vs. Dα1/Dα2/Dβ1)?
**A.** Its value is 0.091.

**Q.** And the “Difference of pEC50 values” (Dα1/Dβ1 vs. Dα1/Dα2/Dβ1)?
**A.** Its value is 0.45.

**Q.** What about the “Difference of Imax values” (Dα1/Dβ1 vs. Dα1/Dα2/Dβ1/Dβ2) of the same compound?
**A.** The value was -0.043.

**Q.** And the “Difference of pEC50 values” (Dα1/Dβ1 vs. Dα1/Dα2/Dβ1/Dβ2)?
**A.** The value was 0.71.

**Q.** What about the “Difference of Imax values” (Dα1/Dβ1 vs. Dα1/Dα3/Dβ1) of the same compound?
**A.** Its value is -0.048.

**Q.** What about the “Difference of pEC50 values” (Dα1/Dβ1 vs. Dα1/Dα3/Dβ1) of the same compound?
**A.** The value was -0.42.

**Q.** And the “Difference of Imax values” (Dα1/Dβ1 vs. Dα1/Dα3/Dβ1/Dβ2)?
**A.** The value was -0.208.

**Q.** And the “Difference of pEC50 values” (Dα1/Dβ1 vs. Dα1/Dα3/Dβ1/Dβ2)?
**A.** Its value is -0.36.

**Q.** And the “Difference of Imax values” (Dα1/Dβ1 vs. Dα1/Dβ1/Dβ2)?
**A.** Its value is 0.046.

**Q.** And the “Difference of pEC50 values” (Dα1/Dβ1 vs. Dα1/Dβ1/Dβ2)?
**A.** The value was 0.17.

**Q.** And the “Difference of Imax values” (Dα1/Dβ1 vs. Dα2/Dα3/Dβ1)?
**A.** The value was 0.021.

**Q.** What about the “Difference of pEC50 values” (Dα1/Dβ1 vs. Dα2/Dα3/Dβ1) of the same compound?
**A.** The value was 0.28.

**Q.** And the “Difference of Imax values” (Dα1/Dβ1 vs. Dα2/Dα3/Dβ1/Dβ2)?
**A.** The value was -0.003.

**Q.** What about the “Difference of pEC50 values” (Dα1/Dβ1 vs. Dα2/Dα3/Dβ1/Dβ2) of the same compound?
**A.** Its value is 0.16.

**Q.** What about the “Difference of Imax values” (Dα1/Dβ1 vs. Dα3/Dβ1) of the same compound?
**A.** Its value is 0.090.

**Q.** And the “Difference of pEC50 values” (Dα1/Dβ1 vs. Dα3/Dβ1)?
**A.** The value was -1.16.

**Q.** And the “Difference of Imax values” (Dα1/Dβ1 vs. Dα3/Dβ1/Dβ2)?
**A.** The value was 0.083.

**Q.** What about the “Difference of pEC50 values” (Dα1/Dβ1 vs. Dα3/Dβ1/Dβ2) of the same compound?
**A.** The value was -1.12.

**Q.** And the “Difference of Imax values” [4]?
**A.** The value was -0.017.

**Q.** And the “Difference of pEC50 values” [4]?
**A.** The value was 0.53.

**Q.** And the “Difference of Imax values” [5]?
**A.** The value was 0.007.

**Q.** What about the “Difference of pEC50 values” [5] of the same compound?
**A.** Its value is -0.20.

**Q.** What about the “Difference of Imax values” [6] of the same compound?
**A.** The value was -0.041.

**Q.** And the “Difference of pEC50 values” [6]?
**A.** The value was 0.41.

**Q.** And the “Difference of Imax values” [7]?
**A.** The value was -0.064.

**Q.** And the “Difference of pEC50 values” [7]?
**A.** Its value is 0.43.

**Q.** And the “Difference of Imax values” [8]?
**A.** Its value is -0.229.

**Q.** What about the “Difference of pEC50 values” [8] of the same compound?
**A.** The value was -0.64.

**Q.** What about the “Difference of Imax values” (Dα2/Dα3/Dβ1 vs. Dα1/Dβ1/Dβ2) of the same compound?
**A.** Its value is 0.025.

**Q.** What about the “Difference of pEC50 values” (Dα2/Dα3/Dβ1 vs. Dα1/Dβ1/Dβ2) of the same compound?
**A.** The value was -0.11.

**Q.** And the “Difference of Imax values” [9]?
**A.** The value was -0.024.

**Q.** What about the “Difference of pEC50 values” [9] of the same compound?
**A.** The value was -0.12.

**Q.** What about the “Difference of Imax values” (Dα2/Dα3/Dβ1 vs. Dα3/Dβ1/Dβ2) of the same compound?
**A.** The value was 0.062.

**Q.** What about the “Difference of pEC50 values” (Dα2/Dα3/Dβ1 vs. Dα3/Dβ1/Dβ2) of the same compound?
**A.** Its value is -1.40.

**Q.** What about the “Difference of Imax values” [10] of the same compound?
**A.** The value was -0.103.

**Q.** And the “Difference of pEC50 values” [10]?
**A.** Its value is 1.81.

**Q.** And the “Difference of Imax values” [11]?
**A.** The value was -0.126.

**Q.** What about the “Difference of pEC50 values” [11] of the same compound?
**A.** The value was 1.83.

**Q.** And the “Difference of Imax values” [12]?
**A.** Its value is -0.291.

**Q.** What about the “Difference of pEC50 values” [12] of the same compound?
**A.** The value was 0.76.

**Q.** What about the “Difference of Imax values” [13] of the same compound?
**A.** Its value is -0.086.

**Q.** And the “Difference of pEC50 values” [13]?
**A.** The value was 1.28.

**Q.** What about the “Difference of Imax values” (Dα3/Dβ1 vs. Dα1/Dα2/Dα3/Dβ1) of the same compound?
**A.** Its value is -0.062.

**Q.** What about the “Difference of pEC50 values” (Dα3/Dβ1 vs. Dα1/Dα2/Dα3/Dβ1) of the same compound?
**A.** Its value is 1.24.

**Q.** What about the “Difference of Imax values” [14] of the same compound?
**A.** Its value is -0.110.

**Q.** What about the “Difference of pEC50 values” [14] of the same compound?
**A.** The value was 1.85.

**Q.** What about the “Difference of Imax values” (Dα3/Dβ1 vs. Dα1/Dα2/Dβ1) of the same compound?
**A.** The value was 0.001.

**Q.** And the “Difference of pEC50 values” (Dα3/Dβ1 vs. Dα1/Dα2/Dβ1)?
**A.** Its value is 1.61.

**Q.** And the “Difference of Imax values” (Dα3/Dβ1 vs. Dα1/Dα2/Dβ1/Dβ2)?
**A.** The value was -0.133.

**Q.** What about the “Difference of pEC50 values” (Dα3/Dβ1 vs. Dα1/Dα2/Dβ1/Dβ2) of the same compound?
**A.** The value was 1.87.

**Q.** What about the “Difference of Imax values” (Dα3/Dβ1 vs. Dα1/Dα3/Dβ1) of the same compound?
**A.** The value was -0.138.

**Q.** What about the “Difference of pEC50 values” (Dα3/Dβ1 vs. Dα1/Dα3/Dβ1) of the same compound?
**A.** The value was 0.74.

**Q.** What about the “Difference of Imax values” (Dα3/Dβ1 vs. Dα1/Dα3/Dβ1/Dβ2) of the same compound?
**A.** The value was -0.298.

**Q.** And the “Difference of pEC50 values” (Dα3/Dβ1 vs. Dα1/Dα3/Dβ1/Dβ2)?
**A.** The value was 0.80.

**Q.** And the “Difference of Imax values” (Dα3/Dβ1 vs. Dα1/Dβ1/Dβ2)?
**A.** The value was -0.044.

**Q.** And the “Difference of pEC50 values” (Dα3/Dβ1 vs. Dα1/Dβ1/Dβ2)?
**A.** The value was 1.33.

**Q.** What about the “Difference of Imax values” (Dα3/Dβ1 vs. Dα2/Dα3/Dβ1) of the same compound?
**A.** The value was -0.069.

**Q.** What about the “Difference of pEC50 values” (Dα3/Dβ1 vs. Dα2/Dα3/Dβ1) of the same compound?
**A.** The value was 1.44.

**Q.** What about the “Difference of Imax values” (Dα3/Dβ1 vs. Dα2/Dα3/Dβ1/Dβ2) of the same compound?
**A.** The value was -0.093.

**Q.** And the “Difference of pEC50 values” (Dα3/Dβ1 vs. Dα2/Dα3/Dβ1/Dβ2)?
**A.** The value was 1.32.

**Q.** And the “Difference of Imax values” (Dα3/Dβ1 vs. Dα3/Dβ1/Dβ2)?
**A.** The value was -0.007.

**Q.** And the “Difference of pEC50 values” (Dα3/Dβ1 vs. Dα3/Dβ1/Dβ2)?
**A.** The value was 0.04.

From paper PMC9934367, “Functional impact of subunit composition and compensation on Drosophila melanogaster nicotinic receptors–targets of neonicotinoids” (PLOS Genetics, 2023)
